# Patent publication US12545896B2, “Growth inhibitor” (Orizuru Therapeutics, Inc., priority 2019, dated 2026)
# What was measured:
# [1] = tested on: insulin-producing cell population obtained by the differentiation from iPS cells (CHGA-negative cells; insulin-positive and NKX6.1-positive cells); assay: Flow cytometry of insulin-producing cell population treated with PLK inhibitor for last 4 days of differentiation (Example 1); assay type: cell-based; details: 3 μM; for Proportion of CHGA-negative and Ki67-negative cells / Proportion of CHGA-negative and Ki67-positive cells / Proportion of insulin-positive and NKX6.1-positive cells: 4 days treatment, flow cytometry
# From the text: The number of CHGA-negative (and Ki67-positive or Ki67-negative) cells in the cell population obtained by each of the above methods 1) and 2) was counted by flow cytometry to determine the proportion of unintended cells, that is, a CHGA-negative (and Ki67-positive or Ki67-negative) rate, in each cell population.
# The number of insulin-positive and NKX6.1-positive cells in the cell population obtained by each of the above methods 1) and 2) was counted by flow cytometry to determine the proportion of the cells of interest, that is, insulin-positive and NKX6.1-positive cells, in each method.
# [2] = tested on: insulin-producing cell population obtained by the differentiation from iPS cells (CHGA-negative cells; insulin-positive and NKX6.1-positive cells); assay: Insulin-producing cell population treated with PLK inhibitor for 7 days in 30 mL reactor for culture (Example 2); assay type: cell-based; details: 3 μM, 7 days treatment
# Method: Specifically, the endocrine progenitor cell population obtained by the differentiation from iPS cells was cultured for 4 days in a medium for induction of differentiation in a 30 mL reactor for culture and thereby differentiated into an insulin-producing cell population.
# For a control, the endocrine progenitor cell population obtained by the differentiation from iPS cells was cultured for 11 days in a medium for induction of differentiation in a 30 mL reactor for culture and thereby differentiated into an insulin-producing cell population.
# [3] = last 4 days of differentiation into insulin-producing cells
smiles,measurement,setting,value
"COc1ccc2c(c1)[C@@]1(C[C@@H]1c1ccc3c(/C=C/c4ccc(CN5C[C@@H](C)O[C@@H](C)C5)cc4)n[nH]c3c1)C(=O)N2 [CAS1338800-06-8, (1S,2R)-2-[3-[(1E)-2-[4-[[(2R,6S)-2,6-dimethyl-4-morpholinyl]methyl]phenyl]ethenyl]-1H-indazol-6-yl]-5′-methoxy-spiro[cyclopropane-1,3′-[^3H]indol]-2′(1′H)-one]",Proportion of CHGA-negative and Ki67-negative cells,[1]; first experiment,11.4%
same,Proportion of CHGA-negative and Ki67-positive cells,[1]; first experiment,0.8%
same,Proportion of insulin-positive and NKX6.1-positive cells,[1]; first experiment,22.4%
same,Proportion of CHGA-negative and Ki67-negative cells,[1]; second experiment,12.4%
same,Proportion of CHGA-negative and Ki67-positive cells,[1]; second experiment,0.2%
same,Proportion of insulin-positive and NKX6.1-positive cells,[1]; second experiment,23.0%
same,Proportion of CHGA-negative cells (both Ki67-positive and Ki67-negative) as compared with a control,[1]; [3],markedly decreased
same,Proportion of the cells of interest (insulin-positive and NKX6.1-positive cells) as compared with a control,[1]; [3],markedly increased
same,Proportion of CHGA-negative cells (both Ki67-positive and Ki67-negative) as compared with a control,[2],markedly decreased
same,Proportion of insulin-positive (and NKX6.1-positive) cells as compared with a control,[2],markedly increased
